Data on 2 molecules can be found in ChEMBL document CHEMBL1201862, “PubChem BioAssay data set” (2004).

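Values below derive from 48-hour exposures of cells grown in 96-well plates, with endpoints linearly interpolated between the two concentrations bracketing the appropriate inhibition level. Abbreviation: GI50, concentration required for 50% inhibition of growth.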 Active and inactive are the calls of the source. Rule as the data show it: active = GI50 up to about 1.1 µM and inactive = higher. Some results are limits rather than exact numbers.

Assay in all cases: NCI-60 cell line screen, 48 h
The subject of assay [1] is RXF 631.
Assay [2] deals with HOP-18.
Assay [3] deals with DMS-114.
Assay [4] relates to KM-20L2.
Assay [5] concerns LXFL 529.
Assay [6] concerns XF498.
Assay [7] has as its system DLD-1.
Assay [8] has as its system SNB-78.
Assay [9] concerns DMS-273.

With `CCCCNCC(=O)O[C@]1(CC)C(=O)OCc2c1cc1n(c2=O)Cc2cc3ccccc3nc2-1`, the GI50 in assay [1] was 1.7 µM (inactive); in assay [2], 0.44 µM (active); in assay [3] it was 0.121 µM (active); in assay [4], 1.24 µM (inactive); in assay [5], 3.21 µM (inactive); in [6], 0.305 µM (active). Further, the GI50 in assay [7] is 3.3 µM (inactive); in [8] it was 2.43 µM (inactive); in assay [9], < 0.01 µM (active).

Consider `COC(=O)c1cc(-c2cccn2C)c2c(c1C(=O)OC)c1ccccc1n2C`, for which the GI50 in assay [1] was 80.4 µM (inactive); in [2], > 100 µM (inactive); in [3] it was 40.3 µM (inactive); in assay [5], 40.2 µM (inactive); in assay [6], > 100 µM (inactive); in assay [7], 7.62 µM (inactive). The GI50 is > 100 µM (inactive) in assay [8] and 34.1 µM (inactive) in assay [9].
